Data set [1] relates to colon cancer cells (SW480). Particulars: SW480 tumors in nude mice; for effect on tumor / on sensitivity of tumor to doxorubicin: doxorubicin 2.5 mg/kg i.p. every 2 days for 5 weeks, agents daily. As for the experimental part:
The experiment was carried out using compound a in this example. Under sterile conditions, a suspension of colon cancer cells (SW480) in logarithmic growth phase (cell concentration was adjusted to 1×10^7/mL with physiological saline) was inoculated subcutaneously to 5 to 6 weeks old balb/c female nude mice on the right rear back, and each nude mice was inoculated at an amount of 0.3 ml, i.e. the number of cells contained was 3×10^6 per each mouse. 10 days later, subcutaneous transplanted tumor of 100-250 mm^3 appeared. The nude mice with tumor were randomly divided into several groups, each containing 6 mice: (1) control group; (2) doxorubicin group; (3) doxorubicin+amifostine; (4) doxorubicin+Celecoxib+intermediate II; (5) doxorubicin+intermediate I+intermediate II; (6) doxorubicin+low-dose compound a (6 mg/kg/day); (7) doxorubicin+high-dose compound a (15 mg/kg/day). Firstly, the following compounds were administered to each group of nude mice with tumor according to the following doses: intermediate I and intermediate II (3 mg/kg/day respectively), amifostine (400 mg/kg/day), Celecoxib (6 mg/kg/day). Except that amifostine was subcutaneously injected (30 minutes before irradiation), the other protective agents were administered by gavage. The above drugs were administered every day for 5 weeks continuously. 12 hours after the administration, doxorubicin (2.5 mg/kg) was injected intraperitoneally, and it was administered once every 2 days for 5 weeks. During the dosing period, the body weight of the nude mice was measured every two days with a precision electronic balance. The growth of the tumor and whether or not red and swelling and rupture occur were observed every day after inoculation. After tumor formation, the surface morphology and activity of the transplanted tumor were examined, and the longest diameter (a) and the shortest diameter (b) of the tumor nodules were measured every 3 days with a vernier caliper. […] 21 days after administration of doxorubicin, the tail vein blood of mice was collected to perform leukocyte count and blood biochemical index analysis. The tumor tissue and normal peripheral tissues were taken on the last day of treatment, and the content of the intermediate I therein was measured by HPLC (FIG. 9a). At the same time, paraffin sections were made, the occurrence of apoptosis was detected by terminal labeling (FIG. 9b), and the relative survival percentages of normal tissue and tumor tissue were calculated (the results are summarized in FIG. 9b).

The subject of data set [2] is mice (C57BL/6J). The experiment in a line: Survival rate of mice irradiated by γ-rays. The class given is in vivo. Particulars: 30th day after 8.75 Gy γ-rays, 16 mice per group; for number of survived mice: intermediates each 3 mg/kg/day gavage; for survival rate: compounds 6 mg/kg/day gavage, amifostine 400 mg/kg/day i.p. As for the experimental part: In this experiment, 10-week-old male mice (C57BL/6J) weighing about 20 g were used as subjects, and 16 mice were taken as a group. The mice were divided into the following groups: 1. no γ-ray+no drug; 2. γ-ray+no drug; 3. γ-ray+amifostine; 4. γ-ray+intermediate I+intermediate II; 5. γ-ray+compound a; 6. γ-ray+compound b; and 7. γ-ray+compound d. Firstly, each group of mice was administered with a protective agent, and the specific amounts were as follows: compound a, b and d: 6 mg/kg/day (8.1 μM), amifostine: 400 mg/kg/day (1.5 mM), intermediate I+Intermediate II: each 3 mg/kg/day (8.1 μM). Except that amifostine was intraperitoneally injected (30 minutes before irradiation, amifostine was administered), the other protective agents were administered by gavage. 12 hours after administration, systemic irradiation was performed using cobalt 60γ-rays at a dose of 8.75Gy and a dose rate of 0.35 Gy/min for 25 minutes, with the radiation source 80 cm away from the mice. The mice were irradiated once, and continuously administered with drugs once daily for 10 days after irradiation. The number of survival mice was recorded. The percentage obtained by dividing the number of survival mice by the total number of mice in the experimental group (16 mice) is survival rate of mice, and the results are summarized in FIG. 7. […] It is noteworthy that in the experimental group using intermediate I+intermediate II, only one mouse is survived.

Data set [3] has as its system peripheral leukocytes. Description: Protection against blood cell (leukocyte) damage induced by paclitaxel. The class given is in vivo. Particulars: mice, paclitaxel; amifostine 400 mg/kg/day i.p. As for the experimental part: In this experiment, 10-week-old male mice (C57BL/6J) weighing about 20 grams were used as subjects, and 6 mice were taken as a group. The mice were divided into 5 groups: 1. Paclitaxel; 2. Paclitaxel+amifostine; 3. Paclitaxel+intermediate I+intermediate II; 4. paclitaxel+compound a; and 5. paclitaxel+compound b. Firstly, each group of mice was administered with a protective agent, and the specific amounts were as follows: compounds a and b: each 6 mg/kg/day (8.1 μM), amifostine: 400 mg/kg/day (1.5 mM), intermediate I+Intermediate II: each 3 mg/kg/day (8.1 μM). Except that amifostine was intraperitoneally injected (30 minutes before administering Paclitaxel, amifostine was administered), the other protective agents were administered by gavage (once a day, 25 times continuously). 12 hours after the compound a and the corresponding protective agents were administered, Paclitaxel was intraperitoneally injected (10 mg/kg/day, once every 3 days, 9 times continuously), and 7, 14, 21, 28 days later, blood of mice was drawn respectively. The number of leukocytes was analyzed.

The subject of data set [4] is A549 cells. The experiment in a line: A549 transplanted tumors in nude mice, compound used alone. The data set is classed as in vivo. Particulars: A549; cisplatin 5 mg/kg/week i.p.; compound a 5 and 25 mg/kg/day; intermediates 12.5 mg/kg/day each. As for the experimental part:
Except cisplatin (intraperitoneal injection, once a week), all compounds were administered by gavage, once a day for 5 weeks continuously.

In data set [5] the test system is HT-29 cells. Description: HT-29 transplanted tumors in nude mice, compound a in combination with doxorubicin. The class given is in vivo. Particulars: Doxorubicin 2 mg/kg/week i.p. or compound a 3 mg/kg/day gavage, 4 weeks. How it is done:
Compound a was administered by gavage once a day for 4 weeks continuously; Doxorubicin was injected intraperitoneally once a week for 4 weeks. Body weight and tumor volume of animals were measured and calculated according to Example 9.

In data set [6] the target is T1, COX-2 (Rattus norvegicus, UniProt P35355).
T1 construct: from tissue; host or cells: rat gastric mucosa (LPS-treated rats, in vivo dosing)
T1 sequence (P35355 18-604): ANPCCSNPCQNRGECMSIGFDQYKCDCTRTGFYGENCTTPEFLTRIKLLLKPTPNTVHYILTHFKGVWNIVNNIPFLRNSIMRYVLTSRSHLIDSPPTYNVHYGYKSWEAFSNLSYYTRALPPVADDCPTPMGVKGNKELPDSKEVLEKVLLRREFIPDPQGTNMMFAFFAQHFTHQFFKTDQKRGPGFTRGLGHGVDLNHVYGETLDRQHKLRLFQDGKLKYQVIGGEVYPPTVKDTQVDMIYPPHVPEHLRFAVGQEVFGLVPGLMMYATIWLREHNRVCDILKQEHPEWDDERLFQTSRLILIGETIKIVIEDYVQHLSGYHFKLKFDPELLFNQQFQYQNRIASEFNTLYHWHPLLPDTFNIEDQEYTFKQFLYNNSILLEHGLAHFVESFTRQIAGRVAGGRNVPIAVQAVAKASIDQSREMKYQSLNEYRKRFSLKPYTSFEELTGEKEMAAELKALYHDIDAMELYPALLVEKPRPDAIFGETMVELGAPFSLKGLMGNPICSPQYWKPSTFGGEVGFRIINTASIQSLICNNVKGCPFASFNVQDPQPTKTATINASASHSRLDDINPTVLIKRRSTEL
Description: COX-2 activity assay (PGE2 in gastric mucosa, EIA) in LPS-treated rats. The class given is in vivo. Particulars: gavage, LPS 2.5 mg/kg-activated. As for the experimental part:
(2) COX-2 activity assay: The assay was similar to that of COX-1, except that LPS was injected intraperitoneally to rats at a dose of 2.5 mg/kg to activate COX-2 in this experiment. After administration, the content of PGE2 in gastric mucosa was measured using an enzyme-linked immunosorbent assay (EIA) kit (operated according to the instructions provided by the manufacturer) and converted to COX2 activity.
(§1) The percentage inhibition rate against COX-1 (FIG. 1a—gastric mucosa, FIG. 1b—myocardium) and COX-2 (FIG. 1c) and the IC50 values (Table 1a—gastric mucosa; Table 1b—myocardium) of each tested pharmaceutical compound were calculated from the above data.

Data set [7] deals with T2, COX-1 in gastric mucosa (Rattus norvegicus, UniProt Q63921).
T2 construct: from tissue; host or cells: rat gastric mucosa (in vivo dosing, tissue homogenate supernatant)
T2 sequence (Q63921 27-602): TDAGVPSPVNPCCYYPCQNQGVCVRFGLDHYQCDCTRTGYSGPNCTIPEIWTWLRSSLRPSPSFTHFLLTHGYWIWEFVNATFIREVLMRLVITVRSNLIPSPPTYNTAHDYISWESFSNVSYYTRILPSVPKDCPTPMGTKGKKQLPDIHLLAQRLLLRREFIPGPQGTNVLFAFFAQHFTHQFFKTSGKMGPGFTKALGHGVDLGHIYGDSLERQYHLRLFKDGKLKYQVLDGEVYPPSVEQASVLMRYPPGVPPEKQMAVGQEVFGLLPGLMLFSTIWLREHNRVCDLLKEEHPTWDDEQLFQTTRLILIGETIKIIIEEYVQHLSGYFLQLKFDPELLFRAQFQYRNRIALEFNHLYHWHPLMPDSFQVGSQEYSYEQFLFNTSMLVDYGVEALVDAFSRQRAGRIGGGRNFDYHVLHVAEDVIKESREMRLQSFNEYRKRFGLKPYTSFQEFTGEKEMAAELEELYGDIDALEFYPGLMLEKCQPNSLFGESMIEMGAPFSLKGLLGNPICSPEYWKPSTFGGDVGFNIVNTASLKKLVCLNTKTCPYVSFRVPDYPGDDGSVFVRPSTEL
The experiment in a line: COX-1 activity assay, gastric mucosa (thromboxane B2 EIA) after oral dosing of A23187-treated rats. The class given is in vivo. Particulars: for reduction of inhibition against COX-1 in gastric mucosal tissue compared with intermediate I: gavage 1, 3, 9 mg/kg/day, intermediate I 0.5 mg/kg, 6 h after dosing; for effect of inhibiting COX-1 in gastric mucosa: gavage, A23187-activated. How it is done:
(1) COX-1 activity assay: 2 hours after intraperitoneal injection of calcium ionophore A23187 (50 mg/kg) to rats, each of the compounds a, b, c, d, e and f was orally administered (gavage) to three rats at a dose of 1, 3 and 9 mg/kg/day, respectively; the intermediate I was orally administered as a control drug to three rats at a dose of 0.5 mg/kg; and additional three rats were only administered with COX-1 activator, the calcium ionophore A23187, and were not administered with the compounds of the present invention. 6 hours after the compound of the present invention was administered, the animals were sacrificed, gastric mucosal tissue and myocardial tissue were collected, homogenized, and subjected to high-speed centrifugation (12,000 rpm), and the supernatant was collected for use. The amount of thromboxane B2 was measured using an enzyme-linked immunosorbent assay (EIA) kit (operated in accordance with the instructions provided by the manufacturer) and converted to COX1 activity.
as §1

The source of these data is patent US10494341B2, “Compound containing indoleacetic acid core structure and use thereof” (Beijing An Jian Xi Bio-Medical Technology Co., Ltd., priority 2015, dated 2019).

Consider `NCCCNCCSP(=O)(O)O` [amifostine, reference compound], for which the “effect on tumor / on sensitivity of tumor to doxorubicin” value in data set [1] is “significantly interferes with the inhibitory effect of doxorubicin on the tumor”. Further, in data set [1] (with doxorubicin), the “protection of normal tissue and cells from doxorubicin” value is recorded as “effectively protects the normal tissue”. In data set [2], the “number of survived mice” value is listed as 10 mice and the survival rate is reported as 62.5%. The “protective effect on leukocytes at the early stage of simulated chemotherapy” value in data set [3] is “slight better than that of the compounds a and b”.
Turning to `N.N.[Cl][Pt][Cl]` [cisplatin, reference compound], the “inhibitory effect on the tumor” value in data set [4] is “only mild inhibitory effect”.
For `COc1cccc2c1C(=O)c1c(O)c3c(c(O)c1C2=O)C[C@@](O)(C(=O)CO)C[C@@H]3O[C@H]1C[C@H](N)[C@H](O)[C@H](C)O1` [Doxorubicin], in data set [1], the “effect on tumor / on sensitivity of tumor to doxorubicin” value is reported as “mild inhibitory effect”. Also, in data set [1] (doxorubicin 2.5 mg/kg i.p., 6 mice per group), the “death of animals during treatment” value is on record as “three”. For the same compound, the “inhibition of the tumor, administered alone” value in data set [5] is given as “only slightly inhibited”.
For the compound `COc1c(O)c(C)c(CCCCCCCCCCOC(=O)CC2=C(C)C(=Cc3ccc([S+](C)[O-])cc3)c3cc(F)ccc32)c(O)c1OC` (centres unmarked) [compound d], the “inhibition against COX-2” value in data set [6] is “weaker than those of compounds a and b”. In data set [2], the “number of survived mice” value was determined as 11 mice and the survival rate came to 68.75%. Further, in data set [7], the “reduction of inhibition against COX-1 in gastric mucosal tissue compared with intermediate I” value (“reduction of inhibition” below) is listed as about 700 fold and the “effect of inhibiting COX-1 in gastric mucosa” value is listed as “almost lose the effect of inhibiting COX-1 in gastric mucosa”.
`COC1=C(OC)C(=O)C(COC(=O)Cc2c(C)n(C(=O)c3ccc(Cl)cc3)c3cc(OC)ccc23)=C(C)C1=O` [compound f]: the “inhibition against COX-2” value in data set [6] was “weaker than those of compounds a and b”. In data set [7], the “reduction of inhibition” value is reported as about 700 fold and the “effect of inhibiting COX-1 in gastric mucosa” value is given as “almost lose the effect of inhibiting COX-1 in gastric mucosa”.
For `COC1=C(OC)C(=O)C(CCCCCCCCCCOC(=O)CC2=C(C)C(=Cc3ccc([S+](C)[O-])cc3)c3cc(F)ccc32)=C(C)C1=O` (centres unmarked) [compound c], the “inhibition against COX-2” value in data set [6] was “weaker than those of compounds a and b”. In addition, in data set [7], the “reduction of inhibition” value is on record as about 700 fold and the “effect of inhibiting COX-1 in gastric mucosa” value was “almost lose the effect of inhibiting COX-1 in gastric mucosa”.
